Consider six compounds from patent US7250432B2, “Pharmaceutical compositions of diaryl-isoxazole derivatives for the prevention and treatment of cancers” (Korea Research Institute of Bioscience and Biotechnology, priority 2003, dated 2007).

A value given as a limit tells only on which side of the number the result lay.

For data set [1], the system named is breast cancer cell line (MDA-MB-231). Put plainly: Analysis of cell migration (modified Boyden chamber). The data set is classed as cell-based. The conditions noted are these: for Cell migration inhibition rate / inhibition at 1 µM / inhibition at 10 µM: breast cancer cells, 18 hours; for inhibition at 1 µM / inhibition at 10 µM: read-out: Cell migration inhibition rate. As to the method: In order to investigate cell migration, modified Boyden chamber and 8 μm pore membrane were purchased from Neuro probe Co. and staining solution for cell staining, Giemsa solution, was purchased from Sigma Co. Other instruments used were CO2 incubator for cell culture, centrifuge for cell washing and inverted microscope (TE 300, Nikon, Japan) for observation.
Particularly, 90% grown up cells on a culture plate were isolated using trypsin/EDTA. The cells were treated with soybean trypsin inhibitor, and washed with serum free medium three times. Then, cell density was adjusted to 4×10^5 cells/ml. The compounds of Example 1-6 and a medium supplemented with 10% FBS were put by 30 μl each in a chamber well of the bottom of modified Boyden chamber, on which 8 μm pore membrane was put. Silicon gasket was placed over and finally a top plate was put on the gasket and fastened with a nut. The cultured cells were put in a well of top plate by 50 μl. The chamber was rapped and further cultured in a 37° C. 5% CO2 incubator for 18 hours.
18 hours later, the nut was taken out. Membrane was separated and fixed in methanol for 10 minutes, followed by drying in the air. After membrane was completely dried, it was stained in Giemsa solution for 90 minutes. At that time, the staining solution was diluted with distilled water at the ratio of 1:10 before use. Upon competing staining, the membrane was dipped in distilled water for about 10 seconds for washing. The membrane was put on a cover slip with a part having cells not shifted heading up and scrubbed with a cotton swab carefully. Manicure was put on the edge of the cover slip, which was then fixed well on a slide glass. The number of migrated cells on the sample prepared above was investigated under inverted microscope.
Cell migration inhibition rate (%)=100−[Number of migrated cells treated with test samples/Number of migrated cells of control]×100
For a control group, only 1% dimethyl sulfoxide […]) was added instead of a compound of the present invention.

The test system of a further data set is HUVEC. The experiment in a line: in vitro endothelial morphogenesis assay (tube formation). The data set is classed as cell-based, human. As to the method:
Angiogenesis inhibition activity of the compound of the present invention was investigated by in vitro endothelial morphogenesis assay using human originated cell line HUVEC.
24-well cell culture plate and matrigel matrix were purchased from BD biosciences Co. Other instruments used for the experiments were CO2 incubator for cell culture and inverted microscope (TE 300, Nikon, Japan) equipped with a digital camera for observation and confirmation of the result.
Particularly, starvation of HUVECs on a serum free medium was performed for overnight. Each well of 24-well cell culture plate was coated with 0.2 Ml of matrigel matrix, which was cultured in a 37° C. incubator for 1 hour. 0.2 Ml of cell culture solution with the cell density of 20000 was put in each well, which was further cultured in a CO2 incubator for 30 minutes. Then, a fresh medium, which was diluted with different concentrations of the compounds of Example 1-6, was given to each well. 1% serum was added to the wells, followed by further culture for 24 hours. Tube formation by HUVECs is observed. In this invention, inhibition of tube formation by the compound of the present invention was observed under inverted microscope, and the results were shown in FIG. 2 and FIG. 3. […]

Another data set relates to zebrafish. Put plainly: Angiogenesis inhibition in zebrafish embryos (subintestinal vessels). The data set is classed as in vivo. The conditions noted are these: FIG. 4. On the procedure:
Experimental instruments used for the invention were temperature-controlled incubator for the incubation of embryo and inverted microscope (TE 300, Nikon, Japan) equipped with a digital camera for observation and confirmation for the results.
Embryos of zebrafish were loaded on a 96-well plate by three embryos per well. The embryos were confirmed to be synchronized embryos which means one day has passed after development. The compounds of the present invention were dissolved in 0.1% DMSO to prepare different concentrations for each compound. Each compound was treated to 4 wells and inhibition of subintestinal vessels (SIVs) in 12 embryos was investigated. To prepare a control, 8 wells were treated with 0.1% DMSO (in embryo water: 0.2 g/l instant ocean salt) (Randall T. Peterson, et al, Proc. Natl. Aced. Sci. USA, 2000, 97: 12965).
For the observation of angiogenic vessels (SIVs), an rmmunological approach of Catherine E. Willet, et al. (Catherine E. Willet, et al., Angiogenesis, 1999, 3: 353), was used in the present invention. Particularly, three days after development, an embryo was fixed in 4% paraformaldehyde at room temperature for 2 hours. The embryo was washed twice with PBS, and dehydrated step by step with PBS, 25%, 50%, 75% and 100% methanol. Then, the embryo was rehydrated step by step with 100%, 75%, 50% and 25% methanol and PBS. […]

The nature of data set [2]: Acute oral toxicity test in rats. It counts as in vivo. On the procedure:
6-week old SPF (specific pathogen-free) SD line rats were used in the acute toxicity test. Compound 1 of the present invention was suspended in 0.5% methylcellulose solution and orally administered once to 2 rats per group. Death, clinical symptoms, and weight change in rats were observed, hematological tests and biochemical tests of blood were performed, and any abnormal signs in the gastrointestinal organs of chest and abdomen were checked with eyes during autopsy.

The mark [3] stands for this setting: Homo sapiens, MDA-MB-231, 10 uM.

“5-(2,4-dimethoxy-5-ethylphenyl)-4-(4-bromophenyl)isoxazole [Example 2]”: the “Cell migration inhibition rate” value in data set [1] (1 uM) is on record as 90.80%; in data set [1] (10 uM), 94.80%.

Regarding `CCc1cc(-c2oncc2-c2ccc(OC)cc2)c(O)cc1OC` [Example 1, 5-(5-ethyl-2-hydroxy-4-methoxyphenyl)-4-(4-methoxyphenyl)isoxazole], in data set [1] (Homo sapiens, MDA-MB-231, 1 uM), the inhibition at 1 µM came to 92.3%. For the same compound, the inhibition at 10 µM in data set [1] (setting [3]) came to 94.5%. In data set [1] (Homo sapiens, 50 nM, MDA-MB-231, FIG. 1), this compound came in with an inhibition at 0.05 µM of at most 50%. The “inhibition of tube formation in vascular endothelial cells” value in the data set on HUVEC (0.01 μM, FIG. 2) is “already detected”; in the data set with HUVEC (1 μM, FIG. 3), “inhibited tube formation”. Besides, the “inhibition of angiogenesis in zebrafish” value with zebrafish (0.5 μM) is reported as “inhibited angiogenesis”. The inhibition at 0.5 µM with zebrafish (Danio rerio, 500 nM) was at most 50%. In addition, the LD50 in data set [2] (SD, rat, in vivo, rats, oral, read-out: estimated LD50) is over 1500 mg/kg. Further, in data set [2] (rat, in vivo, po), the “clinical symptoms, weight change, death” value is on record as “did not cause any specific clinical symptoms, weight change, or death”. The “hematological tests, biochemical tests of blood, autopsy” value in data set [2] (rat, in vivo, po) is recorded as “No change was observed”. Further, in data set [2] (rats, single oral administration), the “level up to which no toxic change was caused” value was at most 1000 mg/kg.

For `CCc1cc(-c2oncc2-c2ccc(OC)cc2)c(OC)cc1OC` [Example 3, 5-(2,4-dimethoxy-5-ethylphenyl)-4-(4-methoxyphenyl)isoxazole], the inhibition at 1 µM in data set [1] (Homo sapiens, MDA-MB-231, 1 uM) worked out at 68.4%. Also, the inhibition at 10 µM in data set [1] (setting [3]) was found to be 82.5%.

As for `CCc1cc(-c2oncc2-c2ccc(OC)cc2)c(OCc2ccccc2)cc1OC` [Example 4, 5-(2-benzyloxy-5-ethyl-4-methoxyphenyl)-4-(4-methoxyphenyl)isoxazole], the inhibition at 1 µM in data set [1] (Homo sapiens, MDA-MB-231, 1 uM) came to 54.6%. Besides, in data set [1] (setting [3]), the inhibition at 10 µM was determined as 70.1%.

Regarding `CCc1cc(-c2oncc2-c2ccc(O)cc2)c(O)cc1OC` [Example 5, 5-(5-ethyl-2-hydroxy-4-methoxyphenyl)-4-(4-hydroxyphenyl)isoxazole], the inhibition at 1 µM in data set [1] (Homo sapiens, MDA-MB-231, 1 uM) came to 43.5%. Further, the inhibition at 10 µM in data set [1] (setting [3]) was 43.3%.

In the case of `CCc1cc(-c2oncc2-c2ccc(O)cc2)c(O)cc1O` [Example 6, 5-(2,4-dihydroxy-5-ethylphenyl)-4-(4-hydroxyphenyl)isoxazole], in data set [1] (Homo sapiens, MDA-MB-231, 1 uM), the inhibition at 1 µM is 79.5%. In data set [1] (setting [3]), the inhibition at 10 µM came out at 79.4%.

A word on the LD50: it is the dose expected to kill half of the subjects tested.
